This passage reports IC50 results from patent US9365576B2, “Pyrrolopyrrolidinone compounds” (Novartis AG, priority 2012, dated 2016).

SMILES strings stand for the structures.

Sequence of human MDM2 protein (amino acids 2-188) (Q00987 2-188): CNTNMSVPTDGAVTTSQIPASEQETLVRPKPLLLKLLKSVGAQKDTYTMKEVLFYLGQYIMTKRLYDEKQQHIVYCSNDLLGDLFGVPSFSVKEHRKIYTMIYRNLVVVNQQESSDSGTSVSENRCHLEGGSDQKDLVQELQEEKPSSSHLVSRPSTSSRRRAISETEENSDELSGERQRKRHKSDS

This assay concerns the target human MDM2 protein (amino acids 2-188) (Homo sapiens (Human), UniProt Q00987). The assay can be described thus: TR-FRET assay, p53-MDM2 Assay 2 (modified). Type of assay: binding. The following applies: TR-FRET; 0.1 nM MDM2, 0.1 nM Europium labeled streptavidin, Tecan genios Pro reader; read-out: IC50 p53-MDM2 Assay 2. The method in brief: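 Biotinylated human MDM2 (aa 2–188, 1.25 nM) was preincubated 15 min at room temperature with 0.625 nM Eu-streptavidin, then 10 nM Cy5-p53 peptide (aa 18–26) added for 15 min. TR-FRET ratio 665/620 nm (excitation 340 nm) was read; IC50 came from curve fitting.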
(Time-resolved FRET reads energy transfer from a long-lived donor to a nearby acceptor.)
`COc1nc(N(C)C)ncc1-c1cc2c(n1C(C)C)C(c1ccc(Cl)cc1)N(C1CN(C)C(=O)N(C)C1)C2=O` (stereo not drawn) [Example 159, 6-(4-Chloro-phenyl)-2-(2-dimethylamino-4-methoxy-pyrimidin-5-yl)-5-(1,3-dimethyl-2-oxo-hexahydro-pyrimidin-5-yl)-1-isopropyl-5,6-dihydro-1H-pyrrolo[3,4-b]pyrrol-4-one]: the IC50 – broadly, the concentration that gives 50% inhibition – came to 0.161 nM.
Next, `COc1nc(N)ncc1-c1cc2c(n1C(C)C)[C@@H](c1ccc(C#N)cc1)N(c1cccc(Cl)c1F)C2=O` [Example 155, 4-[(R)-2-(2-Amino-4-methoxy-pyrimidin-5-yl)-5-(3-chloro-2-fluoro-phenyl)-1-isopropyl-4-oxo-1,4,5,6-tetrahydro-pyrrolo[3,4-b]pyrrol-6-yl]-benzonitrile]: 43 nM; `COc1ccc(CC(=O)N(C)C)cc1-c1cc2c(n1C(C)C)C(c1ccc(Cl)cc1)N(c1cc(Cl)ccc1C)C2=O` (stereo not drawn) [Example 82, 2-{3-[5-(5-Chloro-2-methyl-phenyl)-6-(4-chloro-phenyl)-1-isopropyl-4-oxo-1,4,5,6-tetrahydro-pyrrolo[3,4-b]pyrrol-2-yl]-4-methoxy-phenyl}-N,N-dimethyl-acetamide]: 0.152 nM; `COc1ncc(-c2cc3c(n2C(C)C)[C@@H](c2ccc(Cl)cc2C)N(c2cc(Cl)c(=O)n(C)c2)C3=O)c(OC)n1` [Example 161, (R)-5-(5-Chloro-1-methyl-6-oxo-1,6-dihydro-pyridin-3-yl)-6-(4-chloro-2-methyl-phenyl)-2-(2,4-dimethoxy-pyrimidin-5-yl)-1-isopropyl-5,6-dihydro-1H-pyrrolo[3,4-b]pyrrol-4-one]: 308 nM.
Take `COc1nc(N)ncc1-c1cc2c(n1C(C)C)C(c1ccc(Cl)cc1)N(c1cc(Cl)c(=O)n(C)c1)C2=O` (stereo not drawn) [Example 51, 2-(2-Amino-4-methoxy-pyrimidin-5-yl)-5-(5-chloro-1-methyl-6-oxo-1,6-dihydro-pyridin-3-yl)-6-(4-chloro-phenyl)-1-isopropyl-5,6-dihydro-1H-pyrrolo[3,4-b]pyrrol-4-one]: the IC50 worked out at 0.461 nM.
Turning to `CCOC(=O)c1c2c(n(C(C)C)c1-c1cnc(OC)nc1OC)C(c1ccc(Cl)cc1)N(c1cc(Cl)c(=O)n(C)c1)C2=O` (stereo not drawn) [Example 220, 5-(5-Chloro-1-methyl-6-oxo-1,6-dihydro-pyridin-3-yl)-6-(4-chloro-phenyl)-2-(2,4-dimethoxy-pyrimidin-5-yl)-1-isopropyl-4-oxo-1,4,5,6-tetrahydro-pyrrolo[3,4-b]pyrrole-3-carboxylic acid ethyl ester], the half-inhibitory concentration (IC50) is 0.134 nM.
For `COc1ccccc1-c1cc2c(n1C(C)C)C(c1ccc(Cl)cc1)N(C1CCOCC1)C2=O` (stereo not drawn) [Example 74, 6-(4-Chloro-phenyl)-1-isopropyl-2-(2-methoxy-phenyl)-5-(tetrahydro-pyran-4-yl)-5,6-dihydro-1H-pyrrolo[3,4-b]pyrrol-4-one], the IC50 was found to be 2.57 nM.
Consider `COc1ccc(C(=O)O)cc1-c1cc2c(n1C(C)C)C(c1ccc(Cl)cc1)N(c1cc(Cl)c(=O)n(C)c1)C2=O` (stereo not drawn) [Example 50, 3-[5-(5-Chloro-1-methyl-6-oxo-1,6-dihydro-pyridin-3-yl)-6-(4-chloro-phenyl)-1-isopropyl-4-oxo-1,4,5,6-tetrahydro-pyrrolo[3,4S-b]pyrrol-2-yl]-4-methoxy-benzoic acid], for which the half-maximal inhibitory concentration (IC50) came to 0.234 nM.
`COc1ncc(-c2cc3c(n2C(C)C)[C@@H](c2ccc(C#N)c(F)c2)N(c2cc(Cl)c(=O)n(C)c2)C3=O)c(OC)n1` [Example 238, (R)-4-(5-(5-Chloro-1-methyl-6-oxo-1,6-dihydropyridin-3-yl)-2-(2,4-dimethoxypyrimidin-5-yl)-1-isopropyl-4-oxo-1,4,5,6-tetrahydropyrrolo[3,4-b]pyrrol-6-yl)-2-fluorobenzonitrile]: the IC50 turned out to be 126 nM.
`COc1ccc(-c2cc3c(n2C(C)C)C(c2ccc(Cl)cc2)N(c2cc(Cl)ccc2C)C3=O)c(OC)n1` (stereo not drawn) [Example 22, 5-(5-Chloro-2-methyl-phenyl)-6-(4-chloro-phenyl)-2-(2,6-dimethoxy-pyridin-3-yl)-1-isopropyl-5,6-dihydro-1H-pyrrolo[3,4-b]pyrrol-4-one]: the IC50 came to 0.323 nM.
As to `COc1nc(N(C)C)ncc1-c1cc2c(n1C(C)C)[C@@H](c1ccc(C#N)cc1)N(c1cc(Cl)c(=O)n(C)c1)C2=O` [Example 233, (R)-4-(5-(5-Chloro-1-methyl-6-oxo-1,6-dihydropyridin-3-yl)-2-(2-(dimethylamino)-4-methoxypyrimidin-5-yl)-1-isopropyl-4-oxo-1,4,5,6-tetrahydropyrrolo[3,4-b]pyrrol-6-yl)benzonitrile], the IC50 was determined as 60.2 nM.
For the compound `CNc1ncc(-c2cc3c(n2C(C)C)C(c2ccc(C#N)cc2)N(c2cc(Cl)c(=O)n(C)c2)C3=O)c(OC)n1` (stereo not drawn) [Example 133, 4-[5-(5-Chloro-1-methyl-6-oxo-1,6-dihydro-pyridin-3-yl)-1-isopropyl-2-(4-methoxy-2-methylamino-pyrimidin-5-yl)-4-oxo-1,4,5,6-tetrahydro-pyrrolo[3,4-b]pyrrol-6-yl]-benzonitrile], the IC50 came out at 0.327 nM.
`COc1ncc(-c2cc3c(n2C(C)C)C(c2ccc(Cl)cc2)N(c2cc(C)cn(C)c2=O)C3=O)c(OC)n1` (stereo not drawn) [Example 239, 6-(4-Chlorophenyl-1)-2-(2,4-dimethoxypyrimidin-5-yl)-5-(1,5-dimethyl-2-oxo-1,2-dihydropyridin-3-yl)-1-isopropyl-5,6-dihydropyrrolo[3,4-b]pyrrol-4(1H)-one]: the IC50 is 1.16 nM.
Next, `COc1nc(N(C)C)ncc1-c1cc2c(n1C(C)C)C(c1ccc(Cl)cc1)N(c1cn(C)nc1C)C2=O` (stereo not drawn) [Example 182, 6-(4-Chloro-phenyl)-2-(2-dimethylamino-4-methoxy-pyrimidin-5-yl)-5-(1,3-dimethyl-1H-pyrazol-4-yl)-1-isopropyl-5,6-dihydro-1H-pyrrolo[3,4-b]pyrrol-4-one]: 0.659 nM.
On to `CNC(=O)c1ccc(OC)c(-c2cc3c(n2C(C)C)C(c2ccc(Cl)cc2)N(C2CCOCC2)C3=O)c1` (stereo not drawn) [Example 75, 3-[6-(4-Chloro-phenyl)-1-isopropyl-4-oxo-5-(tetrahydro-pyran-4-yl)-1,4,5,6-tetrahydro-pyrrolo[3,4-b]pyrrol-2-yl]-4-methoxy-N-methyl-benzamide], for which the IC50 was 1.09 nM.
For the compound `COc1ccccc1-c1c(C#N)c2c(n1C(C)C)C(c1ccc(Cl)cc1)N(c1cc(Cl)ccc1C)C2=O` (stereo not drawn) [Example 59, 5-(5-Chloro-2-methyl-phenyl)-6-(4-chloro-phenyl)-1-isopropyl-2-(2-methoxy-phenyl)-4-oxo-1,4,5,6-tetrahydro-pyrrolo[3,4-b]pyrrole-3-carbonitrile], the half-inhibitory concentration (IC50) is 0.163 nM.
Turning to `COc1ncc(-c2cc3c(n2C(C)C)C(c2ccc(Cl)cn2)N(c2cc(Cl)cn(C)c2=O)C3=O)c(OC)n1` (stereo not drawn) [Example 213, 5-(5-Chloro-1-methyl-2-oxo-1,2-dihydro-pyridin-3-yl)-6-(5-chloro-pyridin-2-yl)-2-(2,4-dimethoxy-pyrimidin-5-yl)-1-isopropyl-5,6-dihydro-1H-pyrrolo[3,4-b]pyrrol-4-one], the IC50 was found to be 14.2 nM.
Take `COc1ncc(-c2cc3c(n2C(C)C)C(c2ccc(Cl)c(F)c2)N(c2cc(Cl)c(=O)n(C)c2)C3=O)c(OC)n1` (stereo not drawn) [Example 192, 6-(4-Chloro-3-fluoro-phenyl)-5-(5-chloro-1-methyl-6-oxo-1,6-dihydro-pyridin-3-yl)-2-(2,4-dimethoxy-pyrimidin-5-yl)-1-isopropyl-5,6-dihydro-1H-pyrrolo[3,4-b]pyrrol-4-one]: the IC50 worked out at 0.128 nM.
For the compound `COc1nc(N(C)C)ncc1-c1cc2c(n1C(C)C)C(c1ccc(C#N)cc1)N(C1CCOCC1)C2=O` (stereo not drawn) [Example 158, 4-[2-(2-Dimethylamino-4-methoxy-pyrimidin-5-yl)-1-isopropyl-4-oxo-5-(tetrahydro-pyran-4-yl)-1,4,5,6-tetrahydro-pyrrolo[3,4-b]pyrrol-6-yl]-benzonitrile], the IC50 was 1.34 nM.
Turning to `COC[C@@H](C)n1c(-c2cnc(N)nc2OC)cc2c1[C@@H](c1ccc(Cl)cc1)N(c1ccc(F)c(Cl)c1)C2=O` [Example 230, (R)-2-(2-Amino-4-methoxy-pyrimidin-5-yl)-5-(3-chloro-4-fluoro-phenyl)-6-(4-chloro-phenyl)-1-((R)-2-methoxy-1-methyl-ethyl)-5,6-dihydro-1H-pyrrolo[3,4-b]pyrrol-4-one], the IC50 is 281 nM.
Take `COc1ccc(S(C)(=O)=O)cc1-c1cc2c(n1C(C)C)C(c1ccc(Cl)cc1)N(c1cc(Cl)c(=O)n(C)c1)C2=O` (stereo not drawn) [Example 119, 5-(5-Chloro-1-methyl-6-oxo-1,6-dihydro-pyridin-3-yl)-6-(4-chloro-phenyl)-1-isopropyl-2-(5-methanesulfonyl-2-methoxy-phenyl)-5,6-dihydro-1H-pyrrolo[3,4-b]pyrrol-4-one]: the half-maximal inhibitory concentration (IC50) worked out at 0.168 nM.
On to `COc1nc(N)ncc1-c1cc2c(n1C(C)C)C(c1ccc(C#N)cc1)N(c1c[nH]c(=O)c(Cl)c1)C2=O` (stereo not drawn) [Example 134, 4-[2-(2-Amino-4-methoxy-pyrimidin-5-yl)-5-(5-chloro-6-oxo-1,6-dihydro-pyridin-3-yl)-1-isopropyl-4-oxo-1,4,5,6-tetrahydro-pyrrolo[3,4-b]pyrrol-6-yl]-benzonitrile], for which the IC50 was 1.25 nM.
Regarding `COc1ccc(C(=O)O)cc1-c1cc2c(n1C(C)C)C(c1ccc(Cl)cc1)N(c1cc(Cl)ccc1C)C2=O` (stereo not drawn) [Example 35, 3-[5-(5-Chloro-2-methyl-phenyl)-6-(4-chloro-phenyl)-1-isopropyl-4-oxo-1,4,5,6-tetrahydro-pyrrolo[3,4-b]pyrrol-2-yl]-4-methoxy-benzoic acid], the 50% inhibitory concentration (IC50) was 0.169 nM.
For the compound `COc1ncc(-c2cc3c(n2C(C)C)C(c2ccc(C#N)cc2)N(c2c(F)c(C)nn2C)C3=O)c(OC)n1` (stereo not drawn) [Example 211, 4-[2-(2,4-Dimethoxy-pyrimidin-5-yl)-5-(4-fluoro-2,5-dimethyl-2H-pyrazol-3-yl)-1-isopropyl-4-oxo-1,4,5,6-tetrahydro-pyrrolo[3,4-b]pyrrol-6-yl]-benzonitrile], the IC50 was found to be 1.68 nM.
